Entries after “also recorded” stand apart in the source; their conditions may differ.
System: HOS-FRα tumors
Assay: subcutaneous HOS-FRα osteosarcoma xenograft, E2 CAR-T cells plus EC17
Assay type: in vivo
Excerpt: A dosing regimen is shown in FIG. 21 which includes administration of about 5 million E2 CAR T cells at day −3; administration of EC17 at days 0, 3, 7, 14, 17, 21, 28, 31 and 35. Sequential escalating doses of EC17 will be administered under the following rules: If no CRS or neurotoxicity, advance through EC17 dose escalation as planned. If CRS grade≤2, administer all subsequent EC17 doses at die Sequence level that provoked the non-serious CRS in the stone cycle. If CRS grade>2, cancel further EC17 doses in the current Cycle, and commence all subsequent Cycles at the next highest Sequence below that which provoked the severe CRS (sCRS).
HOS-FRα (i.e. HOS-143b-LV-FRα) is a subclone of HOS-143B (ATCC CRL-8303) stably transfected with human FRα. HOS-143B was originally derived from a […] with osteosarcoma. The tumor cells were grown in folate-deficient RPMI 1640 with 5% FBS at 37° C. in a 5% CO2 humidified atmosphere. For the in-vivo study, tumor cells were inoculated subcutaneously at 1×10^6 cells per animal.
EGFRt-sorted anti-FITC E2 scFv-CAR T cells were frozen in a T-cell freezing medium. Upon arrival, vials of frozen CAR-T cells were immediately stored at −80° C. The CAR-T cells were quickly thawed at 37° C., washed twice with PBS, and used for animal injection at 6 million viable EGFRt+E2 CAR-T cells (CD4/CD8 at ~1:1) per animal. A small aliquot was taken on the day infusion for flow cytometric analysis of E2-CAR T-cell phenotypes.
EC17 dosing solutions were prepared when dosing began by weighing appropriate amounts of each compound, reconstituting in PBS, pH 7.4, sterile filtering the drug solution through a 0.22 pm PVDF syringe filter, and freezing aliquots for each day of dosing at −20° C.
All EC17 doses were given towards the end of day (3-4 PM) to allow potential CRS (cytokine release syndrome) to develop overnight.
Tumor growth, body weight, and overall assessment: Tumor sizes were monitored 2-3 times/week and body weight measured 2-3 times/week. On the days immediately after any EC17 dose, body weight measurement was taken daily and attention was given to gross animal morphology and behavior.
Euthanasia: Euthanasia was performed when mice had lost ≥20% of their weight, when tumors reached ≥1500 mm^3. Euthanasia was also performed if mice lost a lot of weight in a short duration (e.g., due to severe head-tilt), or when they approached moribund conditions per CRS grading system.
All animal care and use were performed according to NIH guidelines and in compliance with protocols approved by the Purdue University Animal Use and Care Committee. Female 4 to 5-week-old NOD/SCID gamma (NSG™) mice (stock number:005557) were purchased from The Jackson Faboratory (Bar Harbor, ME). Unless specifically indicated, all animals were maintained on a FA-deficient diet (TestDiet, St. Fouis, MO) upon arrival and throughout the study. To establish subcutaneous xenografts, MDA-MB-231 and HOS-FRα were implanted in the right flank region at 2.5×10^6 and 1×10^6 cells per animal, respectively. For intravenous xenografts, THP1-FRβ) cells were inoculated at 5×10^6 cells per animal. Subcutaneous tumors were measured 2-3 times per week with a caliper and calculated using the ellipsoidal formula (length×width2)/2. […] All animal doses (CAR-T cells, EC17, sodium fluorescein) were given intravenously.
In a therapeutic setting, EC17 CAM can be given before or after CAR-T cell injection. […]

[1] = E2 CAR-T cells + EC17 5/100/1000 nmol/kg, M/Th/M (Cohort 2)

With `NC1=NC2N=CC(CNc3ccc(C(=O)N[C@@H](CCC(=O)NCCNC(=S)Nc4ccc(-c5c6ccc(=O)cc-6oc6cc(O)ccc56)c(C(=O)O)c4)C(=O)O)cc3)=NC2C(=O)N1` (some centres unmarked) [EC17, FA-(γ)-ethylenediamine-FITC] the “body weight loss or CRS” value [1] was “without body weight loss or CRS”, the “tumor volume of HOS-FRα tumors” value [1] was “significant tumor regression” and the “CAR-T cell expansion in whole blood (flow cytometry)” value (EC17 dose escalation M/Th/M, at euthanasia days 33 and 47) was “EC17-dependent CAR-T cell expansion up to day 47 but higher on day 33”. For the same compound, the “CRS or body weight loss” value (~6 million E2-CAR-T cells + EC17 5/10/100, 5/30/300, 5/50/500 nmol/kg in Cycles 1-3, M/Th/M) was “no CRS or body weight loss” and the HOS-FRα tumor growth (~6 million E2-CAR-T cells + EC17 5/10/100, 5/30/300, 5/50/500 nmol/kg in Cycles 1-3, M/Th/M, 6-day break) was “significant delay in tumor growth within the first two cycles of treatment; also recorded: stopped responding to treatment in Cycle 3”.
